The target of data set [1] is T1, HIV-1 integrase (IN) (Human immunodeficiency virus type 1 group M subtype B, UniProt P04585). Description: In vitro HIV-1 IN catalytic activity inhibition, 3′-processing. It is filed as biochemical.
The subject of the next data set is HIV-1. The following applies: 50% cytoprotective activity in HIV-1 infected MT-4 cells.
The test system of the next data set is MT-4 cells. Description: Cytotoxicity in MT-4 cells. It is filed as cell-based. Conditions: 50% cell-death in same cells (MT-4).
Data set [2] addresses T1, HIV-1 integrase (IN). The experiment in a line: In vitro HIV-1 IN catalytic activity inhibition, strand transfer. It is filed as biochemical.

Results on two compounds are retold here after paper PMC6188661 (Journal of medicinal chemistry, 2013).

The structures appear in SMILES notation. Starred links: 1 amine or outer side, 2 acyl side, 3 side chain; linkers in the order of their positions; H or OH if unused. Non-standard residues stand in square brackets, D forms with d. Residues, ends and D or L forms follow the SMILES beside them. αMeNva(5-ylidene) = C[C@@](CCC=[*:3])(N[*:1])C(=O)[*:2]; S5 = C=CCCC[C@](C)(N)C(=O)O

Usually IC50 stands for the concentration that inhibits the measured activity by half. Broadly, the EC50 is the concentration that produces a half-maximal response. A high value points to weaker potency. In general, CC50 refers to the concentration at which the toxic effect on the cells reaches its halfway point. A higher CC50 goes with better tolerance by the cells.

Regarding `C=CCCC[C@](C)(NC(=O)[C@H](CC(C)C)NC(=O)[C@H](CCCCN)NC(=O)[C@H](CC(C)C)NC(=O)[C@](C)(CCCC=C)NC(=O)[C@H](Cc1ccccc1)NC(=O)[C@H](Cc1ccc(O)cc1)NC(=O)[C@H](C)NC(=O)[C@@H](N)[C@@H](C)O)C(=O)NCC(=O)N[C@@H](CCCNC(=N)N)C(=O)N[C@@H](Cc1c[nH]c2ccccc12)C(N)=O` [NLH5] (H-TAYF[S5]LKL[S5]GRW-NH2; N-terminus assumed), the IC50 worked out at 9 ± 1 µM at HIV-1 integrase (IN) [1] and 6 ± 1 µM against HIV-1 integrase (IN) [2]. It took 28 µM to reach a half-maximal effect with HIV-1 (EC50). This compound had a CC50 with MT-4 cells of 28 µM.
In the case of `C=CCC[C@](C)(NC(=O)[C@H](CC(C)C)NC(=O)[C@H](CCCCN)NC(=O)[C@H](CC(C)C)NC(=O)[C@](C)(CCC=C)NC(=O)[C@H](Cc1ccccc1)NC(=O)[C@H](Cc1ccc(O)cc1)NC(=O)[C@H](C)NC(=O)[C@@H](N)[C@@H](C)O)C(=O)NCC(=O)N[C@@H](CCCNC(=N)N)C(=O)N[C@@H](Cc1c[nH]c2ccccc12)C(N)=O` [NLH11] (H-TAYF[αMeNva(5-ylidene)]LKL[αMeNva(5-ylidene)]GRW-NH2; N-terminus assumed), the IC50 came to 74 ± 11 µM against HIV-1 integrase (IN) [1] and 68 ± 5 µM against HIV-1 integrase (IN) [2]. In the data set with HIV-1, this compound displayed an EC50 of over 18 µM. The same compound returned a cytotoxic concentration (CC50) with MT-4 cells of 18 µM.
